Reference: patent US20260159512A1, “BCAT2 INHIBITORS” (AGIOS PHARMACEUTICALS, INC., priority 2021, published 2026)
Several values for one entry are separate records, joined by “and”; a condition that tells them apart may be missing. Identical values can stand only once.

How the values were obtained:
Conditions in all cases: average where tested multiple times
[1] = target: T1, BCAT2 (Homo sapiens, UniProt O15382); test: BCAT2 in vitro enzyme inhibition assay (resazurin/diaphorase-coupled fluorescence); assay type: biochemical
T1 sequence (O15382 28-392): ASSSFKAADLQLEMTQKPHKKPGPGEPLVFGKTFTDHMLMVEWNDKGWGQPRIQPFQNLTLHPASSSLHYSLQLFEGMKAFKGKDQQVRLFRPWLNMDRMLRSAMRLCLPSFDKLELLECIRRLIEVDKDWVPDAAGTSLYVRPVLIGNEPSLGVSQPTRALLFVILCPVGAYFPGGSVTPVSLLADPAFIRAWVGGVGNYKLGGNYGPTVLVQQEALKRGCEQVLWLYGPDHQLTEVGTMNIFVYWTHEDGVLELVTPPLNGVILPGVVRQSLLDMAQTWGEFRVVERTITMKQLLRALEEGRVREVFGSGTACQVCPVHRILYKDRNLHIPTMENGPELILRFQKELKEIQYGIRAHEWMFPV
In short: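 Coupled fluorescence readout: glutamate formed from L-leucine/α-ketoglutarate transamination drives GDH/NAD/diaphorase reduction of resazurin (Ex 540/Em 590). Human BCAT2 was first exposed 1 h at room temperature to compound, top final 100 μM in 3-fold, 10-point series; substrate reaction ran 1 h before SDS quench, in technical duplicate with DMSO max and enzyme-free min controls.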

[2] = target: T2, hBCAT1 (Homo sapiens, UniProt P54687); test: BCAT1 in vitro enzyme inhibition assay (resazurin/diaphorase-coupled fluorescence); assay type: biochemical
T2 sequence (P54687 1-386): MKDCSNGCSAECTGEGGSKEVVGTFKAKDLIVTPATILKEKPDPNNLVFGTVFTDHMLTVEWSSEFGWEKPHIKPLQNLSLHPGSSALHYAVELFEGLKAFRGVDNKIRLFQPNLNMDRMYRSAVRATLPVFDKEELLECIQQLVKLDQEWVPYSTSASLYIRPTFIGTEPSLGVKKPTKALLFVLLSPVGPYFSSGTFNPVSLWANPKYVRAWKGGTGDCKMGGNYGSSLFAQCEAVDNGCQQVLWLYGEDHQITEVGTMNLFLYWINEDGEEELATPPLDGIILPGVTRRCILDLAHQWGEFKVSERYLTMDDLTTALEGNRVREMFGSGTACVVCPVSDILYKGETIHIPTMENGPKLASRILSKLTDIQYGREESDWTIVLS
Experimental: BCAT1 In Vitro Enzyme Inhibition Assay
Meanwhile the Substrate Mix was prepared.
Test Compound Preparation:
Test compounds were prepared at 50× final concentration in DMSO, 1 to 3 dilutions were made for 10 points. The compounds were added to the assay as a 1 to 50 dilution (1 μL in 50 μL) to yield a top assay final concentration of 100 μM, decreasing 3-fold for 10 points. […] All tests were performed in technical duplicate.
Where a compound was tested multiple times, the average value of the tests is reported.

[3] = target: T1, BCAT2; test: BCAT2 in vitro cell inhibition using engineered A549 cells (KMV cell assay, 13C6-KMV by LC-MS/MS); assay type: cell-based; design: The result was an engineered A549 cell line that expressed endogenous BCAT2; endogenous in cells; host or cells: A549 cells with MUT and BCAT1 knocked out by CRISPR/CAS9; key to BCAT2 Cell Inhibition: A: less than or equal to 0.100 μM; B: greater than 0.100 and less than or equal to 0.500 μM; C: greater than 0.500 and less than or equal to 1.000 μM; d: greater than 1.000 μM; E: no fit

SMILES	IC50 [1] [µM]	IC50 [2] [µM]	BCAT2 Cell Inhibition [3]	IC50 [3]
O=C(NC1CCCC(n2c(-c3ccccn3)nc3cc(-c4ncon4)ncc32)C1)c1ccc(Br)s1 (stereo not shown) [Example 155, N-(3-(6-(1,2,4-oxadiazol-3-yl)-2-(pyridin-2-yl)-3H-imidazo[4,5-c]pyridin-3-yl)cyclohexyl)-5-bromothiophene-2-carboxamide]	≤ 0.1	1 to 5		
CC(C)Cc1nc2cnc(-c3ccccc3F)cc2n1[C@@H]1CCC[C@H](NC(=O)c2ncc(Cl)s2)C1 [Example 206, 5-chloro-N-((1S,3R)-3-(6-(2-fluorophenyl)-2-isobutyl-1H-imidazo[4,5-c]pyridin-1-yl)cyclohexyl)thiazole-2-carboxamide]	0.1 to 0.5	> 5		
Cn1ccc(-c2nc3cnc(-n4ccnn4)cc3n2[C@@H]2CCC[C@H](NC(=O)c3ncc(C(F)F)s3)C2)n1 [Example 42, 5-(difluoromethyl)-N-((1S,3R)-3-(2-(1-methyl-1H-pyrazol-3-yl)-6-(1H-1,2,3-triazol-1-yl)-1H-imidazo[4,5-c]pyridin-1-yl)cyclohexyl)thiazole-2-carboxamide]	> 1		E	
CC(C)Cc1nc2cnc(-c3ccn(C(F)F)n3)cc2n1[C@H]1CCC[C@@H](NC(=O)c2ncc(Cl)s2)[C@@H]1O [Example 229, 5-chloro-N-((1R,2S,3S)-3-(6-(1-(difluoromethyl)-1H-pyrazol-3-yl)-2-isobutyl-1H-imidazo[4,5-c]pyridin-1-yl)-2-hydroxycyclohexyl)thiazole-2-carboxamide]	0.5 to 1		E	
CC(C)Cc1nc2cnc(-c3nc[nH]n3)cc2n1[C@H]1CCC[C@@H](NC(=O)c2ncc(Cl)s2)[C@@H]1O [Example 251, 5-chloro-N-((1R,2S,3S)-2-hydroxy-3-(2-isobutyl-6-(1H-1,2,4-triazol-3-yl)-1H-imidazo[4,5-c]pyridin-1-yl)cyclohexyl)thiazole-2-carboxamide]	0.1 to 0.5			> 1 µM
Cc1cnn(-c2cc3c(cn2)nc(CC(C)C)n3[C@H]2CCC[C@@H](NC(=O)c3ncc(Cl)s3)[C@@H]2O)n1 [Example 244, 5-chloro-N-((1R,2S,3S)-2-hydroxy-3-(2-isobutyl-6-(4-methyl-2H-1,2,3-triazol-2-yl)-1H-imidazo[4,5-c]pyridin-1-yl)cyclohexyl)thiazole-2-carboxamide]	> 1		E	
O=C(N[C@@H]1CCC[C@H](n2c(-c3ccccc3F)nc3cnc(-c4ccn[nH]4)cc32)[C@H]1O)c1ncc(Cl)s1 [Example 239, 5-chloro-N-((1R,2S,3S)-3-(2-(2-fluorophenyl)-6-(1H-pyrazol-5-yl)-1H-imidazo[4,5-c]pyridin-1-yl)-2-hydroxycyclohexyl)thiazole-2-carboxamide]	0.1 to 0.5			0.5 to 1 µM
CC(C)Cc1nc2cnc(-c3ccn(C)n3)cc2n1C1CC(O)CC(NC(=O)c2ncc(Cl)s2)C1 (stereo not shown) [Example 210, 5-chloro-N-(3-hydroxy-5-(2-isobutyl-6-(1-methyl-1H-pyrazol-3-yl)-1H-imidazo[4,5-c]pyridin-1-yl)cyclohexyl)thiazole-2-carboxamide]	≤ 0.1			0.5 to 1 µM
O=C(NN1CCCC(n2c(-c3ccccn3)nc3cnc(-n4nccn4)cc32)C1)c1ncc(C(F)F)s1 (stereo not shown) [Example 137, 5-(difluoromethyl)-N-(3-(2-(pyridin-2-yl)-6-(2H-1,2,3-triazol-2-yl)-1H-imidazo[4,5-c]pyridin-1-yl)piperidin-1-yl)thiazole-2-carboxamide]	> 1		E	

Other lines, results leading:

IC50 [1] [µM]	IC50 [2] [µM]	BCAT2 Cell Inhibition [3]	IC50 [3]	SMILES
> 1		E		COc1cc2c(cn1)nc(-c1ccccc1F)n2[C@H]1C[C@H](O)C[C@@H](NC(=O)c2ncc(Cl)s2)C1 [Example 277, 5-chloro-N-((1S,3R,5R)-3-(2-(2-fluorophenyl)-6-methoxy-1H-imidazo[4,5-c]pyridin-1-yl)-5-hydroxycyclohexyl)thiazole-2-carboxamide]
0.1 to 0.5			> 1 µM	O=C(N[C@@H]1C[C@@H](O)C[C@H](n2c(-c3ccccc3F)nc3cnc(-c4ccn[nH]4)cc32)C1)c1ncc(Cl)s1 (single isomer, unassigned) [Example 259]
> 1		E		COC(=O)N[C@@H](c1nc2cnc(-c3nc[nH]n3)cc2n1[C@@H]1CCC[C@H](NC(=O)c2ncc(Cl)s2)C1)C(C)C [Example 371, methyl ((R)-1-(1-((1R,3S)-3-(5-chlorothiazole-2-carboxamido)cyclohexyl)-6-(1H-1,2,4-triazol-3-yl)-1H-imidazo[4,5-c]pyridin-2-yl)-2-methylpropyl)carbamate]
0.1 to 0.5			> 1 µM	O=C(N[C@@H]1C[C@@H](O)C[C@H](n2c(-c3ccccc3F)nc3cnc(-c4ncco4)cc32)C1)c1ncc(Cl)s1 [Example 261, 5-chloro-N-((1S,3R,5R)-3-(2-(2-fluorophenyl)-6-(oxazol-2-yl)-1H-imidazo[4,5-c]pyridin-1-yl)-5-hydroxycyclohexyl)thiazole-2-carboxamide]
0.1 to 0.5			> 1 µM	CC(C)Cc1nc2cnc(-n3cncn3)cc2n1[C@@H]1CCC[C@H](NC(=O)c2ncc(Cl)s2)C1 [Example 323, 5-chloro-N-((1S,3R)-3-(2-isobutyl-6-(1H-1,2,4-triazol-1-yl)-1H-imidazo[4,5-c]pyridin-1-yl)cyclohexyl)thiazole-2-carboxamide]
0.5 to 1		E		CC(C)Cc1nc2cnc(-c3nc[nH]n3)cc2n1[C@H]1C[C@H](O)C[C@@H](NC(=O)c2ncc(Cl)s2)C1 [Example 257, 5-chloro-N-((1S,3R,5R)-3-hydroxy-5-(2-isobutyl-6-(1H-1,2,4-triazol-3-yl)-1H-imidazo[4,5-c]pyridin-1-yl)cyclohexyl)thiazole-2-carboxamide]
> 1		E		O=C(N[C@@H]1C[C@@H](O)C[C@H](n2c(-c3ccccc3F)nc3cnc(F)cc32)C1)c1ncc(Cl)s1 [Example 275, 5-chloro-N-((1S,3R,5R)-3-(6-fluoro-2-(2-fluorophenyl)-1H-imidazo[4,5-c]pyridin-1-yl)-5-hydroxycyclohexyl)thiazole-2-carboxamide]
0.5 to 1		E		CC(=O)N[C@@H](c1nc2cnc(-c3nc[nH]n3)cc2n1[C@@H]1CCC[C@H](NC(=O)c2ncc(Cl)s2)C1)C(C)C [Example 369, N-((1S,3R)-3-(2-((R)-1-acetamido-2-methylpropyl)-6-(1H-1,2,4-triazol-3-yl)-1H-imidazo[4,5-c]pyridin-1-yl)cyclohexyl)-5-chlorothiazole-2-carboxamide]
> 1		E		CC(C)Cc1nc2cnc(-c3ccccn3)cc2n1[C@@H]1C[C@H](NC(=O)c2ncc(Cl)s2)CN(C)C1 [Example 263, 5-chloro-N-((3S,5R)-5-(2-isobutyl-6-(pyridin-2-yl)-1H-imidazo[4,5-c]pyridin-1-yl)-1-methylpiperidin-3-yl)thiazole-2-carboxamide]
0.5 to 1		E		CNc1cc2c(cn1)nc(-c1ccccc1F)n2[C@H]1C[C@H](O)C[C@@H](NC(=O)c2ncc(Cl)s2)C1 [Example 273, 5-chloro-N-((1S,3R,5R)-3-(2-(2-fluorophenyl)-6-(methylamino)-1H-imidazo[4,5-c]pyridin-1-yl)-5-hydroxycyclohexyl)thiazole-2-carboxamide]
≤ 0.1			≤ 0.1 µM and 0.1 to 0.5 µM	CO[C@@H]1C[C@H](NC(=O)c2ncc(Cl)s2)C[C@H](n2c(-c3ccccc3F)nc3cnc(-c4nc[nH]n4)cc32)C1 (stereo in doubt) [Example 419, 5-chloro-N-((1R,3S,5R)-3-(2-(2-fluorophenyl)-6-(1H-1,2,4-triazol-3-yl)-1H-imidazo[4,5-c]pyridin-1-yl)-5-methoxycyclohexyl)thiazole-2-carboxamide]
